Measured values: patent US20120214760A1, “TREATMENT OF URINARY TRACT INFECTIONS WITH ANTIBACTERIAL AMINOGLYCOSIDE COMPOUNDS” (Achaogen, Inc., priority 2009, published 2012)
In brackets after ≈: the same amount, converted by molar mass. Where two headings read alike, the source gives them in different places.

Experiments:
Format in all cases: cell-based
[1] = tested on: S. marcescens ASMA003, ANT(2″) + AAC(6′); experiment: MIC, aminoglycoside resistant strain; conditions: Table 3
Experimental: (§1) Minimum inhibitory concentrations (MIC) were determined by reference Clinical and Laboratory Standards Institute (CLSI) broth microdilution methods per M7-A7 [2006]. Quality control ranges utilizing E. coli ATCC 25922, P. aeruginosa ATCC 27853 and S. aureus ATCC 29213, and interpretive criteria for comparator agents were as published in CLSI M100-S17 [2007]. Briefly, serial two-fold dilutions of the test compounds were prepared at 2× concentration in Mueller Hinton Broth. The compound dilutions were mixed in 96-well assay plates in a 1:1 ratio with bacterial inoculum. The inoculum was prepared by suspension of a colony from an agar plate that was prepared the previous day. Bacteria were suspended in sterile saline and added to each assay plate to obtain a final concentration of 5×10^5 CFU/mL. The plates were incubated at 35° C. for 20 hours in ambient air.
(§2) These MIC assays were conducted following the same protocol as set forth in Example 110. As shown, substituted sisomicin derivatives with groups other than methyl at the 6′-position have improved activity against strains expressing the AAC6′-modifying enzymes.

[2] = tested on: E. coli AECO040, AAC(6′)-I; experiment: MIC, aminoglycoside resistant strain; conditions: Table 3
Experimental: as §1, §2

[3] = tested on: A. calcoaceticus AACA005, AAC(6′)-I; experiment: MIC, aminoglycoside resistant strain; conditions: Table 3
Experimental: as §1, §2

[4] = tested on: E. coli ATCC 25922 (AECO001); experiment: MIC, CLSI broth microdilution; conditions: for MIC: Escherichia coli; for MIC AECO001: Table 3
In short: (§3)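 CLSI M7-A7 broth microdilution; 2-fold serial dilutions in Mueller Hinton Broth, 1:1 with inoculum; final 5×10^5 CFU/mL; 35° C., 20 h, ambient air. QC strains E. coli ATCC 25922, P. aeruginosa ATCC 27853, S. aureus ATCC 29213.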

[5] = tested on: P. aeruginosa ATCC 27853 (APAE001); experiment: MIC, CLSI broth microdilution; conditions: Pseudomonas aeruginosa, ATCC27853, read-out: MIC APAE001, Table 1; APAE001 is ATCC27853
In short: as §3

E. coli AECO 1003, MDR = experiment: MIC of thigh model strain; conditions: Escherichia coli
Experimental: as §1

[6] = tested on: S. marcescens ASMA 1030, KPC; experiment: MIC of thigh model strain; conditions: Serratia marcescens; Table 5; S. marcescens KPC ASMA 1030
Experimental: as §1

[7] = tested on: S. aureus ATCC 33591, MRSA; experiment: MIC of thigh model strain; conditions: Staphylococcus aureus
Experimental: as §1

[8] = tested on: K. pneumoniae AKPN 1073, MDR; experiment: MIC of thigh model strain; conditions: Klebsiella pneumoniae; Table 5; K. pneumoniae MDR AKPN 1073
Experimental: as §1

[9] = tested on: K. pneumoniae ATCC 43816, Susceptible; experiment: MIC of thigh model strain; conditions: Klebsiella pneumoniae, ATCC43816; Table 5; K. pneumoniae Susceptible ATCC 43816
Experimental: as §1

[10] = tested on: K. pneumoniae AKPN 1109, KPC; experiment: MIC of thigh model strain; conditions: Klebsiella pneumoniae; Table 5; K. pneumoniae KPC AKPN 1109
Experimental: as §1

Staphylococcal isolates = experiment: Susceptibility testing, urinary tract infection isolates
Experimental: as §1
In order to determine the activity of representative antibacterial aminoglycoside compounds against bacterial species that commonly cause complicated urinary tract infections worldwide, isolates were collected from 47 medical centers in the U.S. and Europe (10 countries) from urine or blood culture with the source of bacteremia documented as a urinary tract infection. Strains were susceptibility tested against Example 1, gentamicin, amikacin and 10 comparators by CLSI broth microdilution. […]

[11] = ATCC25922, read-out: MIC AECO001, Table 1, AECO001 is ATCC25922

| Structure (SMILES) | MIC ASMA003 [1] [µg/mL] | MIC AECO040 [2] [µg/mL] | MIC AACA005 [3] [µg/mL] | MIC [4, 11] [µg/mL] | MIC AECO001 ([4]; ATCC25922) [µg/mL] | MIC [5] [µg/mL] | other results |
| --- | --- | --- | --- | --- | --- | --- | --- |
| CN[C@@H]1[C@@H](O)[C@@H](O[C@@H]2[C@@H](O)[C@H](O[C@H]3OC(CNCCCN)=CC[C@H]3N)[C@@H](N)C[C@H]2NC(=O)[C@@H](O)CCN)OC[C@]1(C)O [Example 48, 6′-(3-Amino-propyl)-1-(4-amino-2(S)-hydroxy-butyryl)-sisomicin] | 2 (≈ 3.3 µM) | 0.5 (≈ 0.825 µM) | 2 (≈ 3.3 µM) | < 1 | 1 (≈ 1.65 µM) | 1 to 16 (≈ 1.65 to 26.4 µM) |  |
| CNCC1=CC[C@@H](N)[C@@H](O[C@H]2[C@H](O)[C@@H](O[C@H]3OC[C@](C)(O)[C@H](NC)[C@H]3O)[C@H](NC(=O)C3(O)CNC3)C[C@@H]2N)O1 [Example 61] | 4 (≈ 7.13 µM) | 16 (≈ 28.5 µM) | 2 (≈ 3.57 µM) | < 1 | 1 (≈ 1.78 µM) | 1 to 16 (≈ 1.78 to 28.5 µM) |  |
| C[C@@H](O)[C@H]1C(=O)N2C(C(=O)O)=C(SCCN=CN)C[C@H]12 [IMP, imipenem, reference compound] |  |  |  |  |  |  | MIC (E. coli AECO 1003, MDR): 0.125 µg/mL; MIC [6]: > 32 µg/mL; MIC ([7]; Table 5, S. aureus MRSA ATCC 33591, read-out: MIC): > 16 µg/mL; MIC [8]: 0.25 µg/mL; MIC [9]: 0.5 µg/mL; MIC [10]: 32 µg/mL; MIC ([4]; ATCC25922, Table 5, E. coli Susceptible ATCC 25922): 0.125 µg/mL (≈ 0.418 µM) |
| CN[C@H](CC(C)C)C(=O)N[C@H]1C(=O)N[C@@H](CC(N)=O)C(=O)N[C@H]2C(=O)N[C@H]3C(=O)N[C@H](C(=O)N[C@H](C(=O)O)c4cc(O)cc(O)c4-c4cc3ccc4O)[C@H](O)c3ccc(c(Cl)c3)Oc3cc2cc(c3O[C@@H]2O[C@H](CO)[C@@H](O)[C@H](O)[C@H]2O[C@H]2C[C@](C)(N)[C@H](O)[C@H](C)O2)Oc2ccc(cc2Cl)[C@H]1O [VAN, vancomycin] |  |  |  |  |  |  | MIC [7]: 1 µg/mL |
| O=C1CN(/N=C/c2ccc([N+](=O)[O-])o2)C(=O)N1 [nitrofurantoin] |  |  |  |  |  |  | Staphylococcal susceptibility rate (Staphylococcal isolates): 33.3% |
